# According to PubChem BioAssay AID1549 (Sanford-Burnham Center for Chemical Genomics, 2009):
# Active and inactive are the calls of the source. No rule for the calls is given here.
# Biological target: Influenza A virus M2 proton channel (A/TW/4845/1999 H1N1)
# Test: NMR binding screen, influenza A virus M2 proton channel, Kd (AID 1549)
# Conditions: M2 protein
row,SMILES,Kd
1,CC1(C)CC[C@]2(C(=O)O)CC[C@]3(C)C(=CCC4[C@@]5(C)CC[C@H](O)[C@@](C)(CO)C5CC[C@]43C)C2C1 (stereo partly drawn),> 4 mM (inactive)
2,Cc1ccc(-c2c(C)n([O-])c3c([n+]2=O)CCCC3)o1,> 4 mM (inactive)
3,CS(=O)(=O)N1CCN(C(=O)c2ccccc2)CC1,> 4 mM (inactive)
4,O=c1ccc2cc(O)c(O)cc2o1,> 4 mM (inactive)
5,Cn1c(CN2CC(c3ccccc3)CC2=O)n[nH]c1=S (stereo not drawn),> 4 mM (inactive)
6,Cc1occc1C(=O)NCc1ccccc1F,> 4 mM (inactive)
7,COCC(=O)Nc1cccc2ccccc12,> 4 mM (inactive)
8,NC(=O)c1c[nH]c2ccccc12,> 4 mM (inactive)
9,O=C(O)Cn1c(=O)sc2ccccc21,> 4 mM (inactive)
10,CC[C@@]1(O)C[C@H](O[C@H]2C[C@H](N(C)C)[C@H](O)[C@H](C)O2)c2c(cc3c(c2O)C(=O)c2c(O)cccc2C3=O)[C@H]1C(=O)OC,> 4 mM (inactive)
11,CC(=O)Nc1ccc(S(=O)(=O)NC2=NCCS2)cc1,> 4 mM (inactive)
12,O=C(/C=C/c1ccccc1)c1ccc(O)cc1,> 4 mM (inactive)
13,CC(=O)O[C@H]1C[C@@H](OC(C)=O)C(C)(C)C2CC(=O)[C@]3(C)C(CC[C@@]4(C)[C@H](C(=O)O)OC(=O)C5OC543)[C@]21C (stereo partly drawn),> 4 mM (inactive)
14,Nc1nc(=S)n2c(n1)oc1ccccc12,> 4 mM (inactive)
15,CC(=O)O[C@H]1CC[C@@]2(C)C(C[C@@H](OC(C)=O)[C@@]3(C)C4=CC(=O)O[C@@H](c5ccoc5)[C@]4(C)CCC23)C1(C)C (stereo partly drawn),> 4 mM (inactive)
16,COc1cc2c(cc1OC)C1=C(C#N)CCC(=O)N1CC2,> 4 mM (inactive)
17,O=C(Nc1ccc2c(c1)OCO2)c1ccc(=O)[nH]n1,> 4 mM (inactive)
18,N#Cc1sc2nc3c(c(-c4cccnc4)c2c1N)CCC3,> 4 mM (inactive)
19,CN1C(=O)C(Cc2c[nH]c3ccccc23)C(=O)N(C)C1=O,> 4 mM (inactive)
20,C[C@@H]1O[C@@H](O[C@H]2C[C@@H](O)[C@]3(CO)C4C(CC[C@]3(O)C2)[C@@]2(O)CC[C@H](C3=CC(=O)OC3)[C@@]2(C)C[C@H]4O)[C@H](O)[C@H](O)[C@H]1O (stereo partly drawn),> 4 mM (inactive)
21,O=S1(=O)CCC(NCCO)C1 (stereo not drawn),> 4 mM (inactive)
22,Cn1c(O)c(C2=NC(=S)NC2=O)c2ccccc21,> 4 mM (inactive)
23,COc1ccccc1NC(=O)/C=N/O,> 4 mM (inactive)

row,SMILES,Kd
1,Nc1ncnc2nc(SCCN3CCCCC3)[nH]c12,> 4 mM (inactive)
2,CCc1nnc(NC(C)=O)s1,> 4 mM (inactive)
3,CCC[C@H]1CC2=C(C[C@@H](CC)CC3=C1C(=O)OC3=O)C(=O)OC2=O,> 4 mM (inactive)
4,CC(=O)Nc1cnn(-c2ccccc2)c(=O)c1Cl,> 4 mM (inactive)
5,CCCCCC1C(=O)CCC1CC(=O)OC (stereo not drawn),> 4 mM (inactive)
6,COCC(=O)OCn1nnc2ccccc2c1=O,> 4 mM (inactive)
7,O=C(OCc1c(Cl)cccc1Cl)c1cnccn1,> 4 mM (inactive)
8,COc1c(O)cccc1O,> 4 mM (inactive)
9,NS(=O)(=O)c1ccc(N=Cc2cccs2)cc1,> 4 mM (inactive)
10,CCOC(=O)c1c(C)cc(O)c(C)c1O,> 4 mM (inactive)
11,OCc1ccccc1CN1CCOCC1,> 4 mM (inactive)
12,COc1cc2c(cc1OC)[C@@H]1C(=O)c3ccc(O)c(CC=C(C)C)c3O[C@@H]1CO2,> 4 mM (inactive)
13,S=C(NCC1CCCO1)NC1CC1 (stereo not drawn),> 4 mM (inactive)
14,OC[C@@H](O)[C@@H](O[C@@H]1O[C@H](CO)[C@@H](O)[C@H](O)[C@H]1O)[C@H](O)[C@@H](O)CO,> 4 mM (inactive)
15,O=C(O)C1CCN(S(=O)(=O)c2cccs2)CC1,> 4 mM (inactive)
16,O=C1c2ccccc2C(=O)c2c(O)c(O)cc(O)c21,> 4 mM (inactive)
17,CC(=O)O[C@H]1C[C@@H](OC(C)=O)C(C)(C)C2CC(=O)[C@]3(C)C(CC[C@@]4(C)[C@H](c5ccoc5)OC(=O)[C@H]5O[C@]543)[C@]21C (stereo partly drawn),> 4 mM (inactive)
18,O=C(Nc1nncs1)c1c(F)c(F)c(F)c(F)c1F,> 4 mM (inactive)
19,O=S(=O)(NCc1ccco1)c1cccc2cccnc12,> 4 mM (inactive)
20,COc1ccc2c(c1)OCC(Cc1ccc(OC)c(OC(C)=O)c1)C2=O (stereo not drawn),> 4 mM (inactive)
21,Cc1cccnc1NC1=NCC(C)S1 (stereo not drawn),> 4 mM (inactive)
22,[O-][n+]1onc2c1CCc1c-2nc(-c2ccccc2)n1O,> 4 mM (inactive)
23,NC(=O)c1cccc2c1OCCO2,> 4 mM (inactive)

row,SMILES,Kd
1,CC1(C(=O)O)CC2C=CC1C2 (stereo not drawn),> 4 mM (inactive)
2,COc1cc([C@@H]2c3cc4c(cc3[C@H](OC(C)=O)[C@H]3COC(=O)[C@@H]23)OCO4)cc(OC)c1OC,> 4 mM (inactive)
3,c1cc(CNc2ccc3c(c2)OCCO3)ccn1,> 4 mM (inactive)
4,COc1ccc(NC(=O)C2CC(=O)N=C(N)S2)cc1 (stereo not drawn),> 4 mM (inactive)
5,O=[N+]([O-])c1cccc2c1nnn2C(CO)OCCO (stereo not drawn),> 4 mM (inactive)
6,O=c1ccc(=O)n(CN2CCc3ccccc3C2)[nH]1,> 4 mM (inactive)
7,COc1ccc(C2CC(=O)c3ccc(OC)cc3O2)cc1 (stereo not drawn),> 4 mM (inactive)
8,O=C1C2CCCCC2C(=O)N1c1ccc(O)cc1 (stereo not drawn),> 4 mM (inactive)
9,O=C(c1ncc[nH]1)c1ccccc1C(=O)N1CCOCC1,> 4 mM (inactive)
10,NC(=O)CSc1ccc(-c2ccccc2)nn1,> 4 mM (inactive)
11,Nc1cccnc1Oc1ccc(F)cc1F,> 4 mM (inactive)
12,O=CN1CCN(C(=O)c2ccccc2Cl)CC1,> 4 mM (inactive)
13,COC(=O)N1CCN(c2ccc(OC)cc2)CC1,> 4 mM (inactive)
14,CC(=O)Nc1cc(C(N)=O)cc(C(N)=O)c1,> 4 mM (inactive)
15,O=c1c2c(nc3nc(COc4ccccc4)[nH]n13)CCC2,> 4 mM (inactive)
16,CN(C(=O)NC1CCS(=O)(=O)C1)C1CCCCC1 (stereo not drawn),> 4 mM (inactive)
17,CN1C(=O)CC[C@H]1c1cccnc1,> 4 mM (inactive)
18,Cc1cc2ncc(C(=O)O)c(C)n2n1,> 4 mM (inactive)
19,O=C1CCCN1C(=O)CN1CCOCC1,> 4 mM (inactive)
20,Cc1nc2ccccc2c2c1C(=O)N(N)C2=O,> 4 mM (inactive)
21,Nc1ccc2c(C(F)(F)F)cc(=O)oc2c1,> 4 mM (inactive)
22,Cc1cc(C(=O)NC2=NCCS2)cs1,> 4 mM (inactive)
23,CC(=O)O[C@@H]1CC2C(C)(C)C(=O)C3OC3[C@]2(C)C2CC[C@@]3(C)[C@H](c4ccoc4)OC(=O)C4OC43[C@@]21C (stereo partly drawn),> 4 mM (inactive)

row,SMILES,Kd
1,O=C(Nc1ccncc1)Nc1ccc(F)cc1F,> 4 mM (inactive)
2,COc1ccccc1/C=C\C(=O)O,> 4 mM (inactive)
3,Cc1cc(=O)oc2cc3c(cc12)OCCO3,> 4 mM (inactive)
4,CCOC(=O)C1C(=O)C2CCN1CC2 (stereo not drawn),> 4 mM (inactive)
5,OCc1csc(-c2cccs2)n1,> 4 mM (inactive)
6,CCCCCCCCCCCCCCCCCCOCC(O)CO (stereo not drawn),> 4 mM (inactive)
7,CCNC(CC(=O)Nc1ccc(O)cc1)C(=O)O (stereo not drawn),> 4 mM (inactive)
8,C=C1C2CC[C@@]3(C)[C@H](c4ccoc4)OC(=O)C[C@]13O[C@H]1CC(O)C(C)(C)C(CC(=O)OC)[C@@]21C (stereo partly drawn),> 4 mM (inactive)
9,Cc1c(CCO)c(=O)n2c([nH]c3ccccc32)c1C#N,> 4 mM (inactive)
10,CSc1ccc(S(=O)(=O)N2CCCC2)cc1,> 4 mM (inactive)
11,COC(=O)C1[C@H]2C[C@H]3c4[nH]c5ccccc5c4CCN3C[C@@H]2CC[C@@H]1O (stereo partly drawn),> 4 mM (inactive)
12,O=C(O)c1ccc(CN2CCCCC2)o1,> 4 mM (inactive)
13,Nc1cccc(S(=O)(=O)N2CCOCC2)c1,> 4 mM (inactive)
14,Nc1ccc(S(=O)(=O)Nc2ccc(F)cc2F)cc1,> 4 mM (inactive)
15,O=c1oc2c(O)c(O)cc3c(=O)oc4c(O)c(O)cc1c4c23,> 4 mM (inactive)
16,CC(=O)Nc1ccc2c(c1)CCCC2=O,> 4 mM (inactive)
17,Cc1nn(-c2ccccc2)nc1C(N)=O,> 4 mM (inactive)
18,CC(=O)Oc1ccc(-c2nc(-c3cccnc3)no2)cc1,> 4 mM (inactive)
19,Cc1cc(N2CCCC2=O)c(N)cc1N,> 4 mM (inactive)
20,COc1c(O)cc2c(-c3ccccc3)cc(=O)oc2c1OC,> 4 mM (inactive)
21,Cc1cc(N)n(C2CCOC(C)(C)C2)n1 (stereo not drawn),> 4 mM (inactive)
22,O=C1NC(=S)NC(=O)C1=Cc1ccccc1O,> 4 mM (inactive)
23,CCOC(=O)CC1Sc2ccccc2NC1=S (stereo not drawn),> 4 mM (inactive)

row,SMILES,Kd
1,Nc1nc(-c2ccc(O)cc2)cs1,> 4 mM (inactive)
2,CC(C)(C)c1ccc(SCC(N)=O)cc1,> 4 mM (inactive)
3,O=C1CCc2ccccc2CN1,> 4 mM (inactive)
4,O=C1NC(=S)NC(=O)C1=Cc1ccncc1,> 4 mM (inactive)
5,COc1cc(OC)c(-c2c(OC)cc(OC)cc2OC)c(OC)c1,> 4 mM (inactive)
6,NCc1ccc(S(N)(=O)=O)cc1,> 4 mM (inactive)
7,COc1cc(C(=S)N2CCCC2)cc(Cl)c1O,> 4 mM (inactive)
8,CCn1nnnc1Oc1ccc(Cl)cc1,> 4 mM (inactive)
9,COC(=O)c1ccc(NC(=O)CC2NCCNC2=O)cc1 (stereo not drawn),> 4 mM (inactive)
10,COc1cc2[nH]c(=S)n(C)c(=O)c2cc1OC,> 4 mM (inactive)
11,O=C(Nn1cnnc1)c1csc2c1CCCC2,> 4 mM (inactive)
12,Nc1oncc1-c1ccccn1,> 4 mM (inactive)
13,C/C=C1\[C@H]2C=C(C)C[C@]1(N)c1ccc(=O)[nH]c1C2,> 4 mM (inactive)
14,Nc1ccc2sccc2c1,> 4 mM (inactive)
15,CC(NC(=O)c1ccco1)c1ccc2c(c1)OCCO2 (stereo not drawn),> 4 mM (inactive)
16,OCC1CCCCCN1 (stereo not drawn),> 4 mM (inactive)
17,Cc1ccccc1CSc1nnc(C)n1N,> 4 mM (inactive)
18,C=C[C@@](C)(O)CCC1C(=C)CCC2[C@@](C)(CO)CCC[C@]12C (stereo partly drawn),> 4 mM (inactive)
19,O=C1NC(=O)C(C(=S)Nc2ccccc2)C(=O)N1,> 4 mM (inactive)
20,CNC(=O)C(=O)Nc1c(C)cccc1C,> 4 mM (inactive)
21,O=C(O)CSCC(=O)Nc1cccc(O)c1,> 4 mM (inactive)
